Measured values reported in patent US6288100A, “Benzimidazole derivatives” (American Home Products Corporation, priority 1995, dated 2001).
pIC50: −log10 of the molar value. Counter-ions that a name gives are not always drawn.

Experiments:
[1] = system: porcine aortic smooth muscle cells; test: Porcine smooth muscle cell antiproliferation, PDGF stimulation (3H thymidine incorporation); assay type: cell-based; conditions: PDGF-stimulated (human recombinant PDGF-AB)
Procedure: (§2) The ability of the compounds of the present invention to inhibit smooth muscle cell proliferation was established using isolated porcine aortic smooth muscle cells in a modification of the procedure of Castellot et al. J. Biol. Chem 257(19) 11256 (1982), as follows:
(§3) Fresh porcine aortas, scrupulously cleansed of fatty tissue, are rinsed in sterile phosphate-buffered saline with 2% antibiotic-antimycotic (100×) liquid (10,000 units of penicillin (base), 10,000 μg of streptomycin (base), and 25 μg of amphotericin B/mL utilizing penicillin G (sodium salt), streptomycin sulfate, and amphotericin B as Fungizone® in 0.85% saline, available from Gibco Laboratories, Grand Island Biological Co., Grand Island, N.Y.). The tissue is then digested in 10-15 mL of an enzyme solution containing collagenase type I, 165 U/mL; elastase type III, 15 U/mL; BSA, 2 mg/mL; and soybean trypsin inhibitor, 0.375 mg/mL, followed by incubation at 37° C. under 5% CO2 atmosphere for 10 to 15 minutes. After this treatment, the outer surface adventitia is removed by peeling with a forceps. The aorta is then longitudinally cut and laid open and the endothelial layer is removed by scraping.
(§4) The medial layer of cells is rinsed in the enzyme solution, and placed in a new 100 mm dish with 10 mL of enzyme solution. The medial layer of cells is minced using a fine pair of scissors and digested for 2-3 hours at 37° C. in 30 mL of fresh enzyme solution. After digestion, the medial tissue is homogenized using a sterile Pasteur pipette with a fire polished tip or an Eppendorf pipetter with a 200-1000 μL sterile pipette tip. The suspension is then centrifuged for 10 minutes at 8000 rpm and the pellet is suspended in 4-6 mL of fresh enzyme solution and plated onto 4-6 100 mm flasks with vented caps. The cells are then allowed to grow to confluence and split using 0.25% trypsin. The cells are evaluated for purity and overall quality using antibody to SMC actin.
(§5) The cells are assayed in early passage (generally passage 3-7) at sub-confluent conditions. Cultures are grown in 16 mm (24 well) multi-well culture dishes in media 199 supplemented with 10% fetal bovine serum and 2% antibiotic/antimycotic. At subconfluence, the cells are placed in a defined serum free, lymphocyte medium (AIM-V; Gibco) for 24-48 hours prior to initiating the experimental protocoL
(§6) The standard test procedure is initiated by addition of the test compound, ^3 H thymidine and serum or a specific growth factor to the serum deprived synchronized cells. Growth factor and serum stimulations are optimized for each cell type. The test compounds are added to each well at 50 fold dilution (20 μL/well) and the plates are incubated for 24-36 hours at 37° C. in 5% CO2 atmosphere. Test compounds are dissolved in 50% ethanol and assayed at 1, 10, and 100 μM. As a control, RG 50872 (Bilder, G. A.; et al., Am. J. Cell Physiol., 1991; 260: C721) is routinely assayed under the conditions of each cell preparation at a concentration of 5 μM.
(§7) At the completion of the experiment, the plates are placed on ice, washed three times with ice cold PBS and incubated in ice cold 10% trichloroacetic acid (TCA) for 30 minutes to remove acid soluble proteins. Each solution is transferred to a scintillation vial containing 0.4N HCl (500 μL/vial to neutralize NaOH) and each well is rinsed two times with water (500 μL) for a total volume of 2 mL/vial.
(§8) Data is quantitated by subjecting the vials to a scintillation counter, in triplicate, for both control and experimental samples. […] Experimental data is obtained from cells maximally stimulated with growth factor or serum and treated with a test compound. (The platelet-derived growth factor used in the assay was human recombinant PDGF-AB purchased from Upstate Biotechnology Inc., Lake Placid, N.Y.). Data is expressed as a percent of control from which IC50 s are determined.

[2] = Cytotoxicity, modified MTT assay, % viable cells; assay type: cell-based, porcine; parameters: dose or concentration left out as unconfirmed; conditions: pig, smooth muscle cells, serum-free medium, 37° C.
Procedure: (§1) To distinguish cytotoxicity from the ability of a compound to prevent proliferation, the test compounds were examined using a commercial modification of the MTT assay. Briefly, cells were grown in 24 well plates to 70-80% confluency. The cells were serum deprived for 24-48 hours prior to initiation of the experimental protocol. To insure that the MTT assay monitored toxicity rather than proliferation, the cells were incubated with […] test compound in fresh medium without serum for 24 hours at 37° C. in a humidified CO2 incubator. Upon completion of the compound treatment, MTT indicator dye was added for 4 hours at 37° C. Cells were then solubilized and aliquots from each well were transferred to a 96-well plate for analysis. Absorbance at 570 nm wavelength with a reference wavelength of 630 nm was recorded using an ELISA plate reader.

[3] = system: porcine aortic smooth muscle cells; test: Porcine smooth muscle cell antiproliferation, serum stimulation (3H thymidine incorporation); assay type: cell-based; conditions: serum-stimulated
Procedure: as §2, §3, §4, §5, §6, §7, §8

[4] = system: porcine smooth muscle cells; test: Cytotoxicity, modified MTT assay, % viable cells; assay type: cell-based; parameters: dose or concentration left out as unconfirmed; conditions: serum-free medium, 24 hours, 37° C.
Procedure: as §1

Row | Compound | pIC50 ([1]; Sus scrofa) | viability at 24 h [2] | pIC50 ([3]; Sus scrofa) | inhibition at 20 µM ([3]; Sus scrofa, 20 μM) | other results
1 | CCCc1nc2cc(C(=O)c3ccccc3)ccc2n1Cc1ccc(C(=O)OCC)cc1 [Example 2, 4-(5-Benzoyl-2-propyl-benzoimidazol-1-ylmethyl) -benzoic acid ethyl ester] | 5.93 | 100% | 5.98 |  | 
2 | CCCc1nc2cc(C(=O)c3ccccc3)ccc2n1Cc1ccc(C(=O)O)cc1 [Example 5, 4-(5-Benzoyl-2-propyl-benzoimidazol-1-ylmethyl)-benzoic acid] | 4.80 | 78% |  | 41% | 
3 | 4-[5-(Hydroxy-(phenyl)-methyl)-2-propyl -benzoimidazol-1-ylmethyl]-benzoic acid [Example 6] |  |  |  |  | pIC50 [1]: 4.95; Cytotoxicity, % Viable Cells [4]: 85.5%; Porcine Smooth Muscle Cell Antiproliferation, Serum, % Inhibition at 20 μM ([3]; 20 μM): 45.9%
4 | O=C(c1ccccc1)c1ccc2[nH]c(-c3ccc(OC(F)(F)F)cc3)nc2c1 [Example 11, Phenyl-[2-(4-trifluoromethoxy-phenyl)-1H -benzoimidazol-5-yl]methanone] | 5.11 | 100% | 5.74 |  | 
5 | CCCc1nc2ccc(C(=O)c3ccccc3)cc2n1Cc1ccc(C(=O)OCC)cc1 [Example 3, 4-(6-Benzoyl-2-propyl-benzoimidazol-1-ylmethyl) -benzoic acid ethyl ester] | 5.91 | 100% | 5.80 |  | 
6 | COc1cc(-c2nc3cc(C(=O)c4ccccc4)ccc3[nH]2)ccc1O [Example 9, [2-(4-Hydroxy-3-methoxy-phenyl)1H-benzoimidazol-5-yl]-phenyl-methanone] | 5.38 to 5.43 | 100% | 4.94 to 5.10 |  | 
7 | CCCc1nc2ccc(C(=O)c3ccccc3)cc2n1Cc1ccc(C(=O)O)cc1 [Example 4, 4-(6-Benzoyl-2-propyl-benzoimidazol-1-ylmethyl) benzoic acid] |  | 100% |  | 61.8% | Porcine Smooth Muscle Cell Antiproliferation, PDGF, % Inhibition (concentration not given) ([1]; concentration not given): 0%
8 | CCCc1nc2cc(C(O)c3ccccc3)ccc2n1Cc1ccc(C(=O)O)cc1 (stereo not drawn) [Example 7, 4-[5-(Hydroxy-(phenyl)-methyl)-2-propyl-benzoimidazol-1-ylmethyl]-benzoic acid hydrochloride] | 4.75 | 85% |  |  | inhibition at 10 µM ([3]; Sus scrofa, 10 μM): 36%
9 | CCCCCCOc1ccc(-c2nc3cc(C(=O)c4ccccc4)ccc3[nH]2)cc1OC [Example 10, [2-(4-Hexyloxy-3-methoxy-phenyl)-1H benzoimidazol-5-yl]phenyl-methanone] | 6.12 | 100% | 4.87 |  | 
10 | CCCc1nc2cc(C(=O)c3ccccc3)ccc2[nH]1 [Example 1, Phenyl-(2-propyl-1H-benzoimidazol-5-yl)-methanone] | 4.89 | 80% |  | 39.4% | 
11 | CCCc1nc2cc(C(=O)c3ccccc3)ccc2n1Cc1ccc(Cl)c(Cl)c1 [Example 8, [1-(3,4-Dichloro-benzyl)-2-propyl-1H-benzoimidazol-5-yl]-phenyl-methanone] | 6.33 to 7.02 | 100% |  | 90% | 
12 | COc1ccc(Cc2nc3cc(C(=O)c4ccccc4)ccc3[nH]2)cc1OC [Example 12, [2-(3,4-Dimethoxybenzyl)-1H-benzoimidazol-5-yl]-phenyl-methanone] | 6.85 to 7.09 | 100% | 5.11 |  | 
